Ki data for 13 compounds are collected here from patent US7358268B2, “Imidazole derivatives as factor Xa inhibitors” (Sanofi-Aventis Deutschland GmbH, priority 2002, dated 2008).

pKi: −log10 of the molar value.

T1 sequence (P00742 235-488 limits assumed): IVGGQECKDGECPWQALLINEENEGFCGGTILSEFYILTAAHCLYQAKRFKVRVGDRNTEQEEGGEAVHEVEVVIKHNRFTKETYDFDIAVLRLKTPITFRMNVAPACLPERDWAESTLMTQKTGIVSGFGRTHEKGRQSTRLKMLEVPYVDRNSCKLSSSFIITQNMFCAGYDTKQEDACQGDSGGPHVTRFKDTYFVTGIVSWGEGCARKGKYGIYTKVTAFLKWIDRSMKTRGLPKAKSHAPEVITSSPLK
T1 sequence (P00742 41-179 partner limits assumed): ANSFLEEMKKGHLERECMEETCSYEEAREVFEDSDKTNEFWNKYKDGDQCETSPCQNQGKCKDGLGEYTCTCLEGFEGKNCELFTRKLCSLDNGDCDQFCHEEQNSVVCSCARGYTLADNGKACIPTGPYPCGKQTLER

The assay addresses T1, human factor Xa (Homo sapiens, UniProt P00742).
T1 construct: 25 μl human factor Xa (Enzyme Research Laboratories, Inc; South Bend, Ind.) in TBS-PEG; purchased Enzyme Research Laboratories, Inc; South Bend, Ind
Briefly: Factor Xa assay (chromogenic, purified enzyme). The format is biochemical. Particulars: inhibition constant for factor Xa; chromogenic substrate S-2765 140 μM, enzyme 0.5 nM, 25° C., pH 7.8; Ki calculated from IC50 (Ki=IC50/{1+(substrate concentration/Km)}); read-out: Ki(FXa). The procedure: The ability of the compounds of the formula I to inhibit factor Xa or factor VIIa or other enzymes like thrombin, plasmin, or trypsin can be assessed by determining the concentration of the compound of the formula I that inhibits enzyme activity by 50%, i. e. the IC50 value, which was related to the inhibition constant Ki. Purified enzymes were used in chromogenic assays. The concentration of inhibitor that causes a 50% decrease in the rate of substrate hydrolysis was determined by linear regression after plotting the relative rates of hydrolysis (compared to the uninhibited control) versus the log of the concentration of the compound of formula I. For calculating the inhibition constant Ki, the IC50 value was corrected for competition with substrate using the formula Ki=IC50/{1+(substrate concentration/Km)} wherein Km is the Michaelis-Menten constant (Chen and Prusoff, Biochem. Pharmacol. 22 (1973), 3099-3108; I. H. Segal, Enzyme Kinetics, 1975, John Wiley & Sons, New York, 100-125; which were incorporated herein by reference). a) Factor Xa Assay
In the assay for determining the inhibition of factor Xa activity TBS-PEG buffer (50 mM Tris-HCl, pH 7.8, 200 mM NaCl, 0.05% (w/v) PEG-8000, 0.02% (w/v) NaN3) was used. The IC50 was determined by combining in appropriate wells of a Costar half-area microtiter plate 25 μl human factor Xa (Enzyme Research Laboratories, Inc.; South Bend, Ind.) in TBS-PEG; 40 μl 10% (v/v) DMSO in TBS-PEG (uninhibited control) or various concentrations of the compound to be tested diluted in 10% (v/v) DMSO in TBS-PEG; and substrate S-2765 (N(α)-benzyloxycarbonyl-D-Arg-Gly-L-Arg-p-nitroanilide; Kabi Pharmacia, Inc.; Franklin, Ohio) in TBS-PEG.
The assay was performed by pre-incubating the compound of formula I plus enzyme for 10 min. Then the assay was initiated by adding substrate to obtain a final volume of 100 μl. The initial velocity of chromogenic substrate hydrolysis was measured by the change in absorbance at 405 nm using a Bio-tek Instruments kinetic plate reader (Ceres UV900HDi) at 25° C. during the linear portion of the time course (usually 1.5 min after addition of substrate). The enzyme concentration was 0.5 nM and substrate concentration was 140 μM.
As a reminder, the pKi is the negative decadic logarithm of the Ki, by convention in mol/L. Consider `CC(C)N1CCC(NC(=O)c2cnc(C(=O)N3CCCOCC3)n2Cc2cc(-c3ccc(Cl)s3)on2)CC1` [Example 71, 3-[5-(5-Chloro-thiophen-2-yl)-isoxazol-3-ylmethyl]-2-(perhydro-1,4-oxazepine-4-carbonyl)-3H-imidazole-4-carboxylic acid (1-isopropyl-piperidin-4-yl)-amide], for which the pKi was 7.29.

For `COCc1ncc(C(=O)NC2CCN(C(C)C)CC2)n1Cc1cc(-c2ccc(Cl)s2)on1` [Example 9, 3-[5-(5-Chloro-thiophen-2-yl)-isoxazol-3-ylmethyl]-2-methoxymethyl-3H-imidazole-4-carboxylic acid (1-isopropyl-piperidin-4-yl)-amide], the pKi was 7.07.

Regarding `CC(C)N1CCC(NC(=O)c2c(Cl)nc(-c3ccccc3)n2CC(=O)Nc2ccc(Cl)cn2)CC1` [Example 33, 5-Chloro-3-[(5-chloro-pyridin-2-ylcarbamoyl)-methyl]-2-phenyl-3H-imidazole-4-carboxylic acid (1-isopropyl-piperidin-4-yl)-amide], the pKi is 6.99.

Take `O=C(NCC1CCN(c2ccncc2)CC1)c1nccn1Cc1cc(-c2ccc(Cl)s2)on1` [Example 63, 1-[5-(5-Chloro-thiophen-2-yl)-isoxazol-3-ylmethyl]-1H-imidazole-2-carboxylic acid (3,4,5,6-tetrahydro-2H-[1,4′]bipyridinyl-4-ylmethyl)-amide]: the pKi is 6.19.

As to `CC(C)N1CCC(NC(=O)c2nc(C(=O)N3CC(O)C3)cn2Cc2cc(-c3ccc(Cl)s3)on2)CC1` [Example 43, 1-[5-(5-Chloro-thiophen-2-yl)-isoxazol-3-ylmethyl]-4-(3-hydroxy-azetidine-1-carbonyl)-1H-imidazole-2-carboxylic acid (1-isopropyl-piperidin-4-yl)-amide], the negative logarithm of the Ki (pKi) was 7.21.

On to `Cc1nc(Br)n(Cc2cc(-c3ccc(Cl)s3)on2)c1C(=O)NC1CCN(C(C)C)CC1` [Example 26, 2-Bromo-3-[5-(5-chloro-thiophen-2-yl)-isoxazol-3-ylmethyl]-5-methyl-3H-imidazole-4-carboxylic acid (1-isopropyl-piperidin-4-yl)-amide], for which the pKi was 8.52.

In the case of `COCCc1ncc(C(=O)NC2CCN(C(C)C)CC2)n1Cc1cc(-c2ccc(Cl)s2)on1` [Example 14, 3-[5-(5-Chloro-thiophen-2-yl)-isoxazol-3-ylmethyl]-2-(2-methoxy-ethyl)-3H-imidazole-4-carboxylic acid (1-isopropyl-piperidin-4-yl)-amide], the pKi is 6.40.

`CC(C)N1CCC(NC(=O)c2nc(C(=O)N(C)C)cn2Cc2cc(-c3ccc(Cl)s3)on2)CC1` [Example 44, 1-[5-(5-Chloro-thiophen-2-yl)-isoxazol-3-ylmethyl]-1H-imidazole-2,4-dicarboxylic acid 4-dimethylamide 2-[(1-isopropyl-piperidin-4-yl)-amide]]: the pKi was 6.87.

For `CC(C)N1CCC(NC(=O)c2nc(C(=O)O)cn2Cc2cc(-c3ccc(Cl)s3)on2)CC1` [Example 39, 1-[5-(5-Chloro-thiophen-2-yl)-isoxazol-3-ylmethyl]-2-(1-isopropyl-piperidin-4-ylcarbamoyl)-1H-imidazole-4-carboxylic acid], the pKi was 6.93.

For `COC1CN(C(=O)c2cn(Cc3cc(-c4ccc(Cl)s4)on3)c(C(=O)NC3CCN(C(C)C)CC3)n2)C1` [Example 48, 1-[5-(5-Chloro-thiophen-2-yl)-isoxazol-3-ylmethyl]-4-(3-methoxy-azetidine-1-carbonyl)-1H-imidazole-2-carboxylic acid (1-isopropyl-piperidin-4-yl)-amide], the pKi is 7.04.

For `COCc1ncc(C(=O)NC2CCN(C(C)C)CC2)n1CC(=O)Nc1ccc(Cl)cc1` [Example 30, 3-[(4-Chloro-phenylcarbamoyl)-methyl]-2-methoxymethyl-3H-imidazole-4-carboxylic acid (1-isopropyl-piperidin-4-yl)-amide], the negative-log Ki (pKi) was 7.46.

Turning to `CC(C)N1CCC(NC(=O)c2nccn2Cc2cc(-c3ccc(Cl)s3)on2)CC1` [Example 60, 1-[5-(5-Chloro-thiophen-2-yl)-isoxazol-3-ylmethyl]-1H-imidazole-2-carboxylic acid (1-isopropyl-piperidin-4-yl)-amide], the negative-log Ki (pKi) is 7.31.

`O=C(NC1CCN(c2ccncc2)CC1)c1nccn1Cc1cc(-c2ccc(Cl)s2)on1` [Example 65, 1-[5-(5-Chloro-thiophen-2-yl)-isoxazol-3-ylmethyl]-1H-imidazole-2-carboxylic acid (3,4,5,6-tetrahydro-2H-[1,4′]bipyridinyl-4-yl)-amide]: the negative logarithm of the Ki (pKi) was 6.93.
